This is an account of results in US8314118B2, “Methods and compositions for treating dry eye” (priority 2009, dated 2012).

Holding throughout (type): in vivo, Sprague-Dawley rats
The test system of data set [1] is DB rats. As to the kind of experiment: Schirmer test of tear production in STZ-diabetic (DB) rats after topical treatment. The procedure:
(§1) Male Sprague-Dawley rats (˜245 g) were obtained from Charles River Laboratories (Wilmington, Mass.) and housed under standard laboratory conditions. All investigations conformed to the regulations of the ARVO, National Institutes of Health, and the guidelines of the Department of Comparative Medicine of The Pennsylvania State University.
(§2) Briefly, an intraperitoneal (i.p.) injection of 40 mg/kg streptozotocin (STZ, Sigma, St. Louis, Mo.) in ice-cold 0.5 mol/l citrate buffer (pH 4.5) was administered. […] Fifteen animals not receiving STZ, but injected with citrate buffer, were considered Normal.
Tear secretion was measured with Schirmer strips (Alcon Laboratories, Inc., Ft. Worth Tex.). […] The strip wetting length was measured to the nearest millimeter. Five minutes prior to administration of the Schirmer strip, animals received topical Proparacaine Hydrochloride Ophthalmic Solution 0.5% (Akorn, Inc., Buffalo Grove, Ill.).
(§3) Naltrexone hydrochloride (Sigma-Aldrich, Indianapolis, Ind.) was prepared in Vigamox (moxifloxacin hydrochloride ophthalmic solution, Alcon, Inc, Ft. Worth, Tex.) at a 10^−5 M concentration. NTX was given as a single drop (0.05 ml) to the central cornea of the right eye, with the lower eyelid held away from the eye to avoid overflow.
(§4) Insulin or vehicle was applied topically at 0800 hours.
(§5) For body weights and glucose measurements, Student two-tailed t-tests were utilized. With Schirmer tests and aesthesiometer measurements, one-way analysis of variance with Newman-Keuls post tests was employed because measurements were conducted on a random sample of two-thirds of the rats in each group.

For data set [2], the system named is DB rats. Description: Corneal sensitivity by aesthesiometer in STZ-diabetic (DB) rats after topical treatment. To be noted: for reduction in corneal sensitivity from Normal animals: DB NTX group. The procedure: as §1, §2
Corneal sensitivity was determined by an aesthesiometer (Cachet and Bonnet-Aesthesiometer, Boca Raton, Fla.). The values (g/mm^2) were determined directly from the protocol (and conversion table) supplied by the manufacturer.
Measurements of sensitivity were conducted prior to the Schirmer test.
as §3, §4, §5

A further data set concerns ocular surface. As to the kind of experiment: Slit-lamp observations of the ocular surface. To be noted: during and after NTX administration. The procedure:
To examine general overall morphology and pathology (e.g., corneal edema, scarring), observations with a hand-held slit lamp (Zeiss HSO 10 Hand Slit Lamp, Dublin, Calif.) were conducted.

The next data set concerns Normal rats with Dry Eye. As to the kind of experiment: Schirmer test of tear production in Normal rats with dry eye or "wet" eye. The procedure: FIG. 7. Tear production of Normal rats with Dry Eye (upper panel) and “Wet” eye (lower panel). Animals were measured at baseline, and given 1 drop of topical 10^−6 M naltrexone hydrochloride (NTX). The horizontal black line represents mean baseline for comparisons. Data are expressed as mean (SEM) for 7 rats per group at each time point except 48 hr wherein n=3 rats.
Tear secretion was measured with Schirmer strips (Alcon Laboratories, Inc., Ft. Worth Tex.). A standard 17 mm long Schirmer strip was inserted into the lower cul-de-sac for 1 min. The strip wetting length was measured to the nearest millimeter. Five minutes prior to administration of the Schirmer strip, animals received topical Proparacaine Hydrochloride Ophthalmic Solution 0.5% (Akorn, Inc., Buffalo Grove, Ill.). Testing began 1 hour after the last drop of NTX or vehicle was administered, and continued every 24 hours thereafter.
Sprague-Dawley rats, males of 15-22 weeks of age, were tested for dry eye and therapeutic effects of opioid antagonists. […] All of these measures used a test called the Schirmer Test, as described in Example 1 (the same test used for humans).

Setting [3] is: Normal rats with dry eye, one drop of NTX 10^−6 M.

Some results are limits rather than exact numbers.

For `O=C1CC[C@@]2(O)[C@H]3Cc4ccc(O)c5c4[C@@]2(CCN3CC2CC2)[C@H]1O5` [NTX, 17-(cyclopropylmethyl)-4,5α-epoxy-3,14-dihydroxymorphinan-6-one], the “reduction of tear production from Normal animals” value in the data set with DB rats [1] (DB NTX group, 96 hours after termination of 1 or 5 days of NTX q.i.d.) was 22-59%. In the data set on DB rats [1] (DB rats, 1 drop of topical NTX 10^−5 M in Vigamox), the “time to restoration of tear secretion” value was ≤ 1 h. For the same compound, the “time for which Schirmer scores were comparable to Normal rats” value in the data set with DB rats [1] (DB rats, NTX q.i.d. for 1 or 5 days, from 1 hour after termination of drug exposure) is recorded as “at least 3 days”. Moreover, in the data set on DB rats [1] (DB rats, after 1 drop of NTX), the “time for which tear production was similar to Normal animals” value is reported as “at least 48 hours”. In addition, the “duration of therapeutic effect” value with DB rats [1] (four drops (10^−6 M) over a twelve-hour period) was “at least 72 hours”; in the data set with Normal rats with Dry Eye (one to two drops (10^−6 M)), 48 h. Besides, the “duration of effect on dry eye” value with DB rats [1] (only one daily topical application) is reported as “more than 2 days”. In addition, the “reduction in corneal sensitivity from Normal animals” value in the data set on DB rats [2] (120 hours after termination of 1 day of NTX q.i.d.) was 1.8 fold; in the data set on DB rats [2] (192 hours after termination of 5 day NTX q.i.d.), 1.9 fold; with DB rats [2] (216 hours after termination of 5 day NTX q.i.d.) it was 1.7 fold. Besides, the “time for which corneal sensitivity stayed comparable to Normal” value with DB rats [2] (DB rats, 1 drop of NTX, entire period of the experiment) worked out at 96 h. In the data set with DB rats [2] (DB rats, 1 drop of topical NTX), the “time to restoration of corneal sensitivity” value is reported as ≤ 1 h. Also, in the data set with DB rats [2] (DB rats, NTX q.i.d. for 1 or 5 days, from 1 h after termination of drug exposure), the “time for which corneal sensitivity scores were comparable to Normal rats” value was “at least 4 days”. Besides, in the data set on ocular surface, the “abnormalities of the ocular surface on slit-lamp examination” value is given as “did not reveal any abnormalities”. For the same compound, the “change in moisture of animals with "wet" eye” value in the data set with Normal rats with Dry Eye (Normal rats with "wet" eye, one drop of NTX) is listed as “no change in moisture”. Further, the “persistence of "wet" eye” value in the data set with Normal rats with Dry Eye (setting [3]) is “maintained at 24 and 48 hr”. Moreover, the “time of return to dry eye” value with Normal rats with Dry Eye (setting [3]) was ≤ 72 h. For the same compound, in the data set with Normal rats with Dry Eye (Normal rats with dry eye, one drop of NTX 10^−6 M in VIGAMOX), the “time to reversal of dry eye” value is reported as “within an hour”. Also, in the data set on Normal rats with Dry Eye (one to two drops (10^−6 M)), the “time to reversal of dry eye conditions” value is “within an hour or so”.
As to “INS: Bovine insulin (Sigma-Aldrich) prepared in Vigamox, utilized at a concentration of 1 U”, the “decrease of Schirmer score from Normal rats” value in the data set on DB rats [1] (DB INS group, at 1, 24 and 48 hour time points) is 35-58%. The “effect on tear production” value in the data set on DB rats [1] (DB rats, 1 drop of topical INS (1 U)) was “no effect”. Further, the “corneal sensitivity compared with Normal animals” value in the data set on DB rats [2] (DB rats, 1 drop of topical INS, 1, 24 and 48 h) was “did not differ from the Normal animals”.
